Patent publication US20230227838A1, “ENHANCED CELL SURVIVAL AGAINST BIOTIC AND ABIOTIC STRESSES THROUGH SALICYLICK ACID-INDUCED NPR1 CONDENSATES” (priority 2020, published 2023)
Residue numbers refer to the chain shown, from its start. Entries after “also recorded” stand apart in the source; their conditions may differ.

What was measured:
[1] = tested on: cytoplasmic condensates (SINCs); test: Confocal imaging of localization and condensate (body) formation of GFP-fused NPR proteins and variants; type: cell-based, Nicotiana benthamiana; settings: for SA-induced cytoplasmic body/condensate (SINC) formation: 5 mM SA for 2 hr
Outline: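 GFP fusions transiently expressed in N. benthamiana by Agrobacterium infiltration (OD600 1). For NPR1-GFP, 4-day Arabidopsis seedlings were vacuum-infiltrated and, at 48 hpi, soaked 2 h in water or SA. Airyscan confocal, 40× water objective, GFP ex 488 nm/em 505-530 nm; condensate number, size and intensity scored by automated thresholding.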

[2] = tested on: FLAG-WRKY70; test: NPR1-CRL3 ubiquitination cascade reconstituted in E. coli; type: biochemical, Arabidopsis thaliana; settings: 1 mM sodium salicylate
[3] = tested on: total protein ubiquitination; test: Total ubiquitination in N. benthamiana expressing CUL3 and NPR1 or sim3; type: cell-based, Nicotiana benthamiana
Method: Protein analysis and IP. Recombinant protein analysis was performed using transient expression in N. benthamiana, or stable over-expression in transgenic Arabidopsis, or expression in E. coli. Total protein extraction from plants was performed by homogenizing leaf tissue in the plant extraction buffer [50 mM Tris-HCl (pH 7.5), 150 mM NaCl, 5 mM EDTA, 0.2% Triton X-100, 0.2% Nonidet P-40] supplemented with 1 mM PMSF, 100 μM MG132, and EDTA-free protease inhibitor cocktail (Roche). For ubiquitinated protein analysis in plants, 100 μM of DUB (deubiquitinase) inhibitor (LifeSensors) and 10 mM NEM were added. Next, the lysates were cleared by centrifugation at 14,000 rpm for 15 min followed by filtering through a 0.2 μm filter. […] Pull-downs or IP experiments were done on total protein extracts by incubating protein samples in the lysis buffer overnight with indicated affinity tag or antibody conjugated to agarose or magnetic beads: GFP-trap agarose beads (Chromotek) for GFP fusions; RFP-trap agarose beads (Chromotek) for mCherry fusions; anti-HA magnetic beads (ThermoFisher) for HA tag fusions; anti-DYKDDDDK coupled magnetic agarose (ThermoFisher) for FLAG tag fusions; and glutathione magnetic agarose (ThermoFisher) for GST fusions. Unless otherwise indicated, after pull-down/IP, beads were washed 3 times and proteins were eluted by boiling in the 2×SDS sample buffer. […]

[4] = 5 mM SA, single-cell imaging for 2 hr starting 40 min after induction

NPR1: wild-type Arabidopsis thaliana NPR1 protein, positive regulator of systemic acquired resistance
SA-induced cytoplasmic body/condensate (SINC) formation [1]: significant SA-inducible cytoplasmic body formation
number of bodies, time-lapse [1, 4]: started to decrease after 50 min
total fluorescence from each body, time-lapse [1, 4]: gradual increase in the signal intensity over time
ubiquitination of WRKY70 in reconstituted NPR1-CRL3 cascade [2]: could mediate ubiquitination of WRKY70

O=C(O)c1ccccc1O [SA, salicylic acid]
total protein ubiquitination under dose response to SA ([3]; 3 mM SA): reduction in ubiquitination

B1: sim3: SUMOylation-deficient mutant of NPR1 (protein)
chain: MDTTIDGFADSYEISSTSFVATDNTDSSIVYLAAEQVLTGPDVSALQLLSNSFESVFDSPDDFYSDAKLVLSDGREVSFHRCVLSARSSFFKSALAAAKKEKDSNNTAAVKLELKEIAKDYEVGFDSVVTVLAYVYSSRVRPPPKGVSECADENCCHVACRPAVDFMLEVLYLAFIFKIPELITLYQRHLLDVVDKVVIEDTLVILKLANICGKACMKLLDRCKEIIVKSNVDMVSLEKSLPEELVKEIIDRRKELGLEVPKVKKHVSNVHKALDSDDIELVKLLLKEDHTNLDDACALHFAVAYCNVKTATDLLKLDLADVNHRNPRGYTVLHVAAMRKEPQLAASALEKGASASEATLEGRTALMIAKQATMAVECNNIPEQCKHSLKGRLCVEILEQEDKREQIPRDVPPSFAVAADELKMTLLDLENRVALAQRLFPTEAQAAMEIAEMKGTCEFIVTSLEPDRLTGTKRTSPGVKIAPFRILEEHQSRLKALSKTVELGKRFFPRCSAVLDQIMNCEDLTQLACGEDDTAEKRLQKKQRYMEIQETLKKAFSEDNLELGNSSLTDSTSSTSKSTGGKRSNRKLSHRRR
modifications: left off: small tags and cut ends
notes: SUMOylation-deficient mutant of NPR1
condensate formation at lower SA concentration ([1]; 1 mM SA for 5 hr): could form condensates at a lower concentration of SA
baseline SA-dependent ubiquitination ([3]; compared with NPR1): lower
ubiquitination of WRKY70 in reconstituted NPR1-CRL3 cascade [2]: could mediate ubiquitination of WRKY70

B2: S55/59D: phosphomimic mutant of NPR1 at S55/59 (protein)
chain: B1 chain with S55D, S59D, A345I, A346L, A348L
modifications: left off: small tags and cut ends
SA-induced cytoplasmic body/condensate (SINC) formation [1]: inability to form SINCs; also recorded: fail to form cytoplasmic condensates
